Measured values from patent US9890166B2, “Imidazopyrrolidine derivatives and their use in the treatment of disease” (NOVARTIS AG, priority 2013, dated 2018).

What was measured:
BRD4 (His-Brd4(44-477)) = BRD4 (His-Brd4(44-477)) (Homo sapiens (Human), UniProt O60885); experiment: TR-FRET in-vitro binding assay for BRD4; details: single determination or n ≧ 2 independent determinations, read-out: Biochemical IC50 BRD4
Experimental: (§1) TR-FRET In-Vitro Binding Assays for BRD2, BRD3, and BRD4:
(§2) All assays were performed in 384 well microtiter plates. Each assay plate contained 8-point serial dilutions for 40 test compounds, plus 16 high- and 16 low controls. Liquid handling and incubation steps were done on an Innovadyne Nanodrop Express equipped with a robotic arm (Thermo CatX, Perkin Elmer/Caliper Twister II) and an incubator (Liconic STX40, Thermo Cytomat 2C450). The assay plates were prepared by addition of 50 nl per well of compound solution in 90% DMSO HummingBird nanodispenser (Zinsser Analytic). […] Reactions were incubated at 30° C. for 35 minutes. […] After 35 minutes incubation at 30° C., plates were measured in a Perkin Elmer EnVision multilabel reader.
(§3) Preparation of Compound Dilutions
(§4) Test compounds were dissolved in DMSO (10 mM) and transferred into 1.4 mL flat bottom or V-shaped Matrix tubes carrying a unique 2D matrix. The stock solutions were stored at […] if not used immediately. For the test procedure the vials were defrosted and identified by a scanner whereby a working sheet was generated that guided the subsequent working steps.
(§5) Compound dilutions were made in 96 well plates. This format enabled the assay of maximally 40 individual test compounds at 8 concentrations (single points) including 4 reference compounds, if desired (known BET inhibitors from the prior art, for this and other assays of the type disclosed herein). The dilution protocol included the production of “pre-dilution plates”, “master plates” and “assay plates”.
(§6) Pre-Dilution Plates: 96 polypropylene well plates were used as pre-dilution plates. A total of 4 pre-dilution plates were prepared including 10 test compounds each on the plate positions A1-A10, one standard compound at A11 and one DMSO control at A12. All dilution steps were done on a HamiltonSTAR robot.
(§7) These plates were used directly for the assay which was performed in a total volume of 13.55 μL.

BRD2 (His-Brd2(60-472)) = BRD2 (His-Brd2(60-472)) (Homo sapiens (Human), UniProt P25440); experiment: TR-FRET in-vitro binding assay for BRD2; details: single determination or n ≧ 2 independent determinations, read-out: Biochemical IC50 BRD2
Experimental: as §1, §2, §3, §4, §5, §6, §7

BRD3 (His-Brd3(20-477)) = BRD3 (His-Brd3(20-477)) (Homo sapiens (Human), UniProt Q15059); experiment: TR-FRET in-vitro binding assay for BRD3; details: single determination or n ≧ 2 independent determinations, read-out: Biochemical IC50 BRD3
Experimental: as §1, §2, §3, §4, §5, §6, §7

THP-1 cells = experiment: Cell growth inhibition assay (CellTiter-Glo), THP-1; details: for GI50: Homo sapiens, THP-1, read-out: THP-1 GI50; for THP-1 TGI: THP-1 cells, total growth inhibition, CellTiter-Glo;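 as to all read-outs here: viability read as cellular ATP luminescence after 4 days, 3-fold dilution series from 10 µM, DMSO vehicle-treated cells taken as 100%, cell-free medium wells as −100%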
K-562 cells = experiment: Cell growth inhibition assay (CellTiter-Glo), K-562; details: for GI50: Homo sapiens, K562, read-out: K-562 GI50; for K-562 TGI: K-562 cells, total growth inhibition, CellTiter-Glo;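 as to all read-outs here: cellular ATP measured by luminescence after 4 days of exposure, 3-fold dilution series from 10 µM, DMSO vehicle-treated cells define 100%, cell-free medium wells −100%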
MV-4-11 cells = experiment: Cell growth inhibition assay (CellTiter-Glo), MV-4-11; details: for GI50: Homo sapiens, MV4-11, read-out: MV-4-11 GI50; for MV-4-11 TGI: MV-4-11 cells, total growth inhibition, CellTiter-Glo;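 as to all read-outs here: cellular ATP luminescence after 4 days, 3-fold dilution series from 10 µM top dose, vehicle (0.1% DMSO) set to 100%, cell-free medium set to −100%, day 0 corrected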
[1] = molecular target: CREBBP bromodomain (His-CREBBP(1081-1197)) (Homo sapiens (Human), UniProt Q92793); experiment: AlphaScreen in-vitro binding assay for CREBBP; details: single determination or n ≧ 2 independent determinations, read-out: Biochemical IC50 CREBBP
Experimental: AlphaScreen In-Vitro Binding Assay for CREBBP
In order to assess bromodomain selectivity, we set up a binding assay using the bromodomain encoded by the CREBBP gene. […] Reactions were incubated at 30° C. for 35 minutes. Subsequently 4.5 μl per well detection mix (50 mM HEPES, pH 7.5, 0.005% Tween20, 0.02% BSA, 150 mM NaCl, 45 μg/ml Ni-chelate acceptor beads, 45 μg/mIstreptavidin-donor beads) (Perkin Elmer)) were added. After 60 minutes incubation at room temperature, plates were measured in a Perkin Elmer EnVision multilabel reader. IC50 values were determined from percent inhibition values at different compound concentrations by non-linear regression analysis.
as §3, §4, §5, §6, §7

Chain of BRD2 (His-Brd2(60-472)) (P25440 60-472): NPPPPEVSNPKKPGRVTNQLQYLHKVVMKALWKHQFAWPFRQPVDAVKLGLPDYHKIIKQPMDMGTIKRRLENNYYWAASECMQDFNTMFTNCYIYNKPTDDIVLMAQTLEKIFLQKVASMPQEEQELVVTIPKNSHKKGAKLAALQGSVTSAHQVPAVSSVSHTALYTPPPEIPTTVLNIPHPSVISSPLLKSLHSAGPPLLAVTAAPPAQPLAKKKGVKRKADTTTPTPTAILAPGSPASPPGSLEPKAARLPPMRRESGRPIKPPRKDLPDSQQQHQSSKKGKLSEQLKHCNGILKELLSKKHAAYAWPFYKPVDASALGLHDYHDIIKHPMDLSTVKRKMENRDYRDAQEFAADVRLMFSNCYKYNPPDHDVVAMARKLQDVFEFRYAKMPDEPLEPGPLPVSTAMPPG
Chain of BRD3 (His-Brd3(20-477)) (Q15059 20-477): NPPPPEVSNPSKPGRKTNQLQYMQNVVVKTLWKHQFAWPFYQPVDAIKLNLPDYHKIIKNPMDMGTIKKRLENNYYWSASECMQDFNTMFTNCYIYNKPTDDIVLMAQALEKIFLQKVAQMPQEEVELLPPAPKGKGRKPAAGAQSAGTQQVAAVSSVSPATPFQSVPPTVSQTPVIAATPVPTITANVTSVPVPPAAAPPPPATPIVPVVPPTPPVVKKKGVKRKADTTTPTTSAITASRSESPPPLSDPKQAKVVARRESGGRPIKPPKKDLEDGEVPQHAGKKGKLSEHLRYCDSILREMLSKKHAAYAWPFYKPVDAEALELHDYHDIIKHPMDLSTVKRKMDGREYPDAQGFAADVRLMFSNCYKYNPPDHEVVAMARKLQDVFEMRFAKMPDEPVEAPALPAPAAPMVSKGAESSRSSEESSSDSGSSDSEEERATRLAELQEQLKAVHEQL
Chain of CREBBP bromodomain (His-CREBBP(1081-1197)) (Q92793 1081-1197): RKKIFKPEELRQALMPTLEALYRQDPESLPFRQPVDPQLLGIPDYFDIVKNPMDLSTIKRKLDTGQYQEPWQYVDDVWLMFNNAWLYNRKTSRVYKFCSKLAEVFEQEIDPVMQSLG

| Compound | IC50 (BRD4 (His-Brd4(44-477))) [nM] | IC50 (BRD2 (His-Brd2(60-472))) [nM] | IC50 (BRD3 (His-Brd3(20-477))) [nM] | GI50 (THP-1 cells) [nM] | THP-1 TGI (THP-1 cells) [nM] | GI50 (K-562 cells) [nM] | K-562 TGI (K-562 cells) [nM] | GI50 (MV-4-11 cells) [nM] | MV-4-11 TGI (MV-4-11 cells) [nM] | IC50 [1] [nM] |
| --- | --- | --- | --- | --- | --- | --- | --- | --- | --- | --- |
| Cc1nc(C)c(-c2nc3c(n2C(C)C)C(c2ccc(Cl)cc2)N(c2cc(C)c(=O)n(C)c2)C3=O)s1 (stereo not drawn) [Example 25, 6-(4-chlorophenyl)-5-(1,5-dimethyl-6-oxo-1,6-dihydropyridin-3-yl)-2-(2,4-dimethylthiazol-5-yl)-1-isopropyl-5,6-dihydropyrrolo[3,4-d]imidazol-4(1H)-one] | 99 | 120 | 79 | 118 | 209 | 528 | >10000 | 65.7 | 90.4 | – |
| Cc1cc(N2C(=O)c3nc(-c4cccnc4F)n(C)c3C2c2ccc(Cl)cc2)cn(C)c1=O (stereo not drawn) [Example 32, 6-(4-chlorophenyl)-5-(1,5-dimethyl-6-oxo-1,6-dihydropyridin-3-yl)-2-(2-fluoropyridin-3-yl)-1-methyl-5,6-dihydropyrrolo[3,4-d]imidazol-4(1H)-one] | 170 | 180 | 130 | – | – | – | – | – | – | – |
| COc1ncccc1-c1nc2c(n1C(C)C)C(c1ccc(Cl)cc1)N(c1cc(C)c3nnn(C)c3c1)C2=O (racemic) [Example 77, 6-(4-chlorophenyl)-5-(1,4-dimethyl-1H-benzo[d][1,2,3]triazol-6-yl)-1-isopropyl-2-(2-methoxypyridin-3-yl)-5,6-dihydropyrrolo[3,4-d]imidazol-4(1H)-one] | < 24 | 52 | 39 | 7.94 | 21.7 | 21.5 | >10000 | 4.93 | 9.36 | – |
| COc1ncccc1-c1nc2c(n1C(C)C)[C@@H](c1ccc(Cl)cc1)N(c1cc(C)c3nnn(C)c3c1)C2=O [Example 112, (R)-6-(4-chlorophenyl)-5-(1,4-dimethyl-1H-benzo[d][1,2,3]triazol-6-yl)-1-isopropyl-2-(2-methoxypyridin-3-yl)-5,6-dihydropyrrolo[3,4-d]imidazol-4(1H)-one] | < 11 | 13 | < 11 | 4.79 | 9.84 | 17.2 | >10000 | 1.72 | 4.61 | – |
| Cc1cc(N2C(=O)c3nc(C4CCCC4)n(C(C)C)c3C2c2ccc(Cl)cc2)cn(C)c1=O (stereo not drawn) [Example 31, 6-(4-chlorophenyl)-2-cyclopentyl-5-(1,5-dimethyl-6-oxo-1,6-dihydropyridin-3-yl)-1-isopropyl-5,6-dihydropyrrolo[3,4-d]imidazol-4(1H)-one] | 47 | 45 | 37 | 79.4 | 125 | 349 | >10000 | 36.4 | 59.9 | – |
| COc1cc(C(F)(F)F)ccc1-c1nc2c([nH]1)C(c1ccc(Cl)cc1)N(c1cc(C)c3nnc(C)n3c1)C2=O (stereo not drawn) [Example 136, 6-(4-chlorophenyl)-5-(3,8-dimethyl-[1,2,4]triazolo[4,3-a]pyridin-6-yl)-2-(2-methoxy-4-(trifluoromethyl)phenyl)-5,6-dihydropyrrolo[3,4-d]imidazol-4(1H)-one] | 30 | – | 32 | 79.4 | 179.5 | 227 | >10000 | 76.6 | 114 | 2600 |
| Cc1cc(N2C(=O)c3nc(C4CCOC4)n(C(C)C)c3[C@H]2c2ccc(Cl)cc2)cc2c1nnn2C (stereo partly drawn) [Example 172, (6R)-6-(4-chlorophenyl)-5-(1,4-dimethyl-1H-benzo[d][1,2,3]triazol-6-yl)-1-isopropyl-2-(tetrahydrofuran-3-yl)-5,6-dihydropyrrolo[3,4-d]imidazol-4(1H)-one] | 13 | – | 17 | 6.28 | 12.26 | 19.6 | >10000 | 5.22 | 10.33 | 980 |
